From patent EP1893207B1, “USE OF SUBSTITUTED PIPERAZINE DERIVATIVES AND MORPHOLINE DERIVATIVES” (Merck Patent GmbH, priority 2005, dated 2006)

Key:
Pilz-tyrosinase = assay: Tyrosinase assay (inhibition of the enzyme tyrosinase, L-DOPA substrate, optical density at 450 nm); assay type: biochemical; details: Tyrosinase 10 U, L-DOPA 4 mM, 1 h 37°C
Experimental: Die Wirkung der Verbindungen nach Formeln Ia bis IIp als Hautaufheller wird geprüft durch ihre Fähigkeit das Enzym Tyrosinase zu hemmen und damit die Melanin-Synthese zu unterbinden. Um die hemmende Wirkung der Verbindungen der Formeln Ia bis IIp gegenüber Tyrosinase zu zeigen wurden als Substrate Pilz-tyrosinase und L-Tyrosin oder L-DOPA verwendet und mit der Referenz-Verbindung verglichen.
Die Verbindungen Ia bis IIp und Tyrosinase (10 U) werden 10 Min. in Eis vorgekühlt und L-DOPA (4 mM) zugefügt und für 1 h auf 37°C gehalten. Es wird die optische Dichte jedes experimentell ermittelten Punktes bei 450 nm gegenüber der entsprechenden Referenz ohne Enzym gemessen. Kojicsäure wird als Tyrosinase-Referenz-Inhibitor benutzt. Die Versuchsergebnisse sind in der folgenden Tabelle 1 dargestellt, ausgedrückt durch den IC 50-Wert (d.h. die Konzentration der jeweiligen Versuchssubstanz bei der die Tyrosinase-Aktivität um 50% blockiert ist). Tab. 1 Tyrosinase-Versuchsergebnisse

[1] = system: normale menschliche Melanocyten; assay: Melanin assay (melanin content of human melanocyte cultures, optical density at 405 nm); assay type: cell-based; details: 240 h incubation; for % Kontrolle normiert*: melanin content normalised; for % Kontrolle: melanin content
Excerpt: Das Potential der Verbindungen nach Formeln Ia bis IIp als Hautaufheller-Wirkstoff wurde außerdem durch den Melanin-Versuch verifiziert. Der Effekt in Bezug auf den Melanin-Gehalt von menschlichen epidermalen Melanocyten-Kulturen dieser Verbindungen wurde ermittelt und mit der Referenzverbindung (Kojicsäure) verglichen.
Eine vorausgehende Cytotoxizitäts-Studie der Verbindungen nach Formeln Ia bis IIp wurde durchgeführt um drei nicht-cytotoxische Konzentrationen für den Melanin-Versuch zu ermitteln.
Melanin-Versuch: normale menschliche Melanocyten wurden in 24 Lochplatten (110.000 Zellen/Loch) kultiviert. Bei 50 % Zusammenfluss wurde das Kulturmedium mit oder ohne (Kontrollverbindung) Verbindungen der Formeln Ia bis IIp durch frisches Kulturmedium in drei verschiedenen Konzentrationen ersetzt.
Nach der Inkubation (240 Stunden) wurden die Monolayers gewaschen, die Zellen lysiert und das Melanin extrahiert. Es wurde die optische Dichte jedes experimentellen Punktes bei 405 nm gegen den Melanin-Standard gemessen. Tabelle 2 zeigt die Ergebnisse zwei ausgewählter Verbindungen im Vergleich zur Kojicsäure und der Kontrollverbindung (mit 100% Melaningehalt), wobei der ermittelte Melaningehalt (in %) bei jeweils drei verschiedenen Konzentrationen angegeben ist. Tab. 2 Melanin-Versuchsergebnisse

c1ccc(CN2CCN(Cc3ccccn3)CC2)cc1 [IIk, 1-Benzyl-4-pyridin-2-ylmethyl-piperazin]
IC50 (Pilz-tyrosinase): > 1000 µM

c1cc(CN2CCNCC2)ccn1 [IIn, 1-Pydridin-4-ylmethyl-piperazin]
IC50 (Pilz-tyrosinase): 280 µM

c1cncc(CN2CCNCC2)c1 [IIo, 1-Pyridin-3-ylmethyl-piperazin]
IC50 (Pilz-tyrosinase): 360 µM

c1ccc(CN2CCNCC2)nc1 [IIp, 1-Pyridin-2-ylmethyl-piperazin]
IC50 (Pilz-tyrosinase): 553 µM

Oc1cccc(CN2CCN(Cc3ccccc3)CC2)c1O [Ia, 3-(4-Benzyl-piperazin-1-ylmethyl)-benzen-1,2-diol]
Melanin ([1]; Konzent. 0.8 µg/mL): 38.6 µg/mL | Melanin normiert* ([1]; Konzent. 0.8 µg/mL): 36.4 µglmL | % Kontrolle normiert* ([1]; Konzent. 0.8 µg/mL): 98% | % Kontrolle ([1]; Konzent. 0.8 µg/mL): 104% | IC50 (Pilz-tyrosinase): 134 µM

Oc1ccc(CN2CCN(Cc3ccccc3)CC2)c(O)c1 [Ib, 4-(4-Benzyl-piperazin-1-ylmethyl)-benzen-1,3-diol]
Melanin ([1]; Konzent. 0.8 µg/mL): 37.8 µg/mL | Melanin normiert* ([1]; Konzent. 0.8 µg/mL): 37.1 µglmL | Melanin ([1]; Konzent. 4 µg/mL): 37.1 µg/mL | Melanin normiert* ([1]; Konzent. 4 µg/mL): 34.8 µglmL | % Kontrolle normiert* ([1]; Konzent. 0.8 µg/mL): 100% | % Kontrolle normiert* ([1]; Konzent. 4 µg/mL): 94% | % Kontrolle ([1]; Konzent. 0.8 µg/mL): 102% | % Kontrolle ([1]; Konzent. 4 µg/mL): 100% | IC50 (Pilz-tyrosinase): 154 µM

Oc1cc(O)cc(CN2CCN(Cc3ccccc3)CC2)c1 [Id, 5-(4-Benzyl-piperazin-1-ylmethyl)-benzen-1,3-diol]
IC50 (Pilz-tyrosinase): > 1000 µM

CCN1CCN(Cc2ccc(O)cc2O)CC1 [Ie, 4-(4-Ethyl-piperazin-1-ylmethyl)-benzen-1,3-diol]
Melanin ([1]; Konzent. 0.8 µg/mL): 37.3 µg/mL | Melanin normiert* ([1]; Konzent. 0.8 µg/mL): 36.5 µglmL | Melanin ([1]; Konzent. 4 µg/mL): 37.5 µg/mL | Melanin normiert* ([1]; Konzent. 4 µg/mL): 36.0 µglmL | Melanin ([1]; Konzent. 20 µg/mL): 33.8 µg/mL | Melanin normiert* ([1]; Konzent. 20 µg/mL): 32.9 µglmL | % Kontrolle normiert* ([1]; Konzent. 0.8 µg/mL): 98% | % Kontrolle normiert* ([1]; Konzent. 4 µg/mL): 97% | % Kontrolle normiert* ([1]; Konzent. 20 µg/mL): 88% | % Kontrolle ([1]; Konzent. 0.8 µg/mL): 100% | % Kontrolle ([1]; Konzent. 4 µg/mL): 101% | % Kontrolle ([1]; Konzent. 20 µg/mL): 91% | IC50 (Pilz-tyrosinase): 263 µM

CC(C)(C)OC(=O)N1CCN(Cc2ccc(O)cc2O)CC1 [If, 4-(4-tert-Butoxycarbinyl-piperazin-1-ylmethyl)-benzen-1,3-diol]
IC50 (Pilz-tyrosinase): 140 µM

Oc1ccc(CN2CCOCC2)c(O)c1 [Ih, 4-Morpholin-1-ylmethyl-benzen-1,3-diol]
Melanin ([1]; Konzent. 1.6 µg/mL): 37.2 µg/mL | Melanin normiert* ([1]; Konzent. 1.6 µg/mL): 37.0 µglmL | Melanin ([1]; Konzent. 8 µg/mL): 35.3 µg/mL | Melanin normiert* ([1]; Konzent. 8 µg/mL): 32.1 µglmL | Melanin ([1]; Konzent. 40 µg/mL): 30.6 µg/mL | Melanin normiert* ([1]; Konzent. 40 µg/mL): 30.4 µglmL | % Kontrolle normiert* ([1]; Konzent. 1.6 µg/mL): 99% | % Kontrolle normiert* ([1]; Konzent. 8 µg/mL): 86% | % Kontrolle normiert* ([1]; Konzent. 40 µg/mL): 82% | % Kontrolle ([1]; Konzent. 1.6 µg/mL): 100% | % Kontrolle ([1]; Konzent. 8 µg/mL): 95% | % Kontrolle ([1]; Konzent. 40 µg/mL): 82% | IC50 (Pilz-tyrosinase): 78 µM

COc1ccc(CN2CCN(Cc3ccccc3)CC2)c(OC)c1 [Ii, 1-Benzyl-4-(2,4-dimethoxy-benzyl)-piperazin]
IC50 (Pilz-tyrosinase): > 1000 µM

c1ccc(CN2CCN(Cc3ccc4c(c3)OCO4)CC2)cc1 [Ij, 1-Benzo[1,3]dioxol-5-ylmethyl-4-benzyl-piperazin]
IC50 (Pilz-tyrosinase): 153 µM

O=c1cc(CO)occ1O [Kojicsäure, reference compound]
Melanin ([1]; Konzent. 6.8 µg/mL): 34.4 µg/mL | Melanin normiert* ([1]; Konzent. 6.8 µg/mL): 38.0 µglmL | Melanin ([1]; Konzent. 15.6 µg/mL): 30 µg/mL | Melanin normiert* ([1]; Konzent. 15.6 µg/mL): 34.6 µglmL | Melanin ([1]; Konzent. 36 µg/mL): 23.8 µg/mL | Melanin normiert* ([1]; Konzent. 36 µg/mL): 31.7 µglmL | % Kontrolle normiert* ([1]; Konzent. 6.8 µg/mL): 101% | % Kontrolle normiert* ([1]; Konzent. 15.6 µg/mL): 92% | % Kontrolle normiert* ([1]; Konzent. 36 µg/mL): 85% | % Kontrolle ([1]; Konzent. 6.8 µg/mL): 92% | % Kontrolle ([1]; Konzent. 15.6 µg/mL): 80% | % Kontrolle ([1]; Konzent. 36 µg/mL): 64% | IC50 (Pilz-tyrosinase): 12 µM
